Measurements published in patent publication US5900488A, “Method for treating mycosis using imidazolylacetonitrile derivatives” (Nihon Nohyaku Co., Ltd., priority 1995, dated 1999).
Converted amounts (≈) assume the structure as drawn. Where two headings read alike, the source gives them in different places. Values belong to the molecule of their own block, whether it stands above or below them.

What was measured:
Trichophyton rubrum = test: In vitro activity against Trichophyton rubrum, MIC by twofold macro-broth dilution (Test Example 1); format: cell-based
Method: (§1) Minimum inhibitory concentrations (MICs) were determined by the twofold macro-broth dilution method with Sabouraud's glucose broth which constituted with 1% bactopeptone and 4% glucose. To each tube containing 9.8 ml of the broth, 0.1 ml of each testing compound dissolved in DMSO and 0.1 ml of a conidial suspension (1×10^6 conidia/ml) were added. The fungal growth was observed after incubation for 7 days at 27° C. The MIC was determined as the lowest drug concentration which prevented a visible fungal growth.

Aspergillus fumigatus = test: In vitro antifungal activity against Aspergillus fumigatus, MIC by twofold agar dilution (Test Example 4); format: cell-based
Method: MICs were determined by the twofold agar dilution method with casitone agar which constituted with 0.9% bactocasitone, 1% bacto-yeast extract, 2% glucose, 0.1% KH2 PO4, 0.1% Na2 HPO4, 1% Na3 C6 H5 O7 and 1.6% agar. A loopful of each inoculum (1×10^6 conidia/ml) was streaked onto the agar plate containing a compound, and a fungal growth was observed after incubation for 48 hours at 35° C. The MIC was determined as the lowest drug concentration which prevented a visible fungal growth.

Candida albicans = test: In vitro antifungal activity against Candida albicans, MIC by twofold micro-broth dilution (Test Example 3); format: cell-based; details: 48 hours at 35° C., pH 7.0, read-out: MIC
Method: MICs were determined by the twofold micro-broth dilution method with RPMI 1640 buffered with morphorino-propanesulfonic acid to a final molarity of 0.165M (pH 7.0). One hundred μl of a yeast cell suspension (1 to 5×10^3 cells/ml) and 100 μl of the compound-containing medium were pipetted into each well flat-bottomed microtiter plates. After incubation for 48 hours at 35° C., the turbidity of each well was measured at 630 nm.

[1] = system: trichophyton mentagrophytes TIMM 2789; test: Therapeutic efficacy on experimental tinea pedis in guinea pigs (Test Example 2); format: in vivo
Method: Male Hartley guinea pigs (Japan SLC Inc.) weighing 400 to 620 g were used for the infection study. One side of a paper disc (1.5 mm thick×8 mm diameter) was covered with a piece of aluminum foil while the other side was free to carry the inoculum suspension. The disc was immersed with 50 μl of the inoculum suspension (trichophyton mentagrophytes TIMM 2789, 1×10^8 conidia/ml), and was then fixed on the planta pedis of animal feet with an adhesive elastic tape. The disc was removed on the seventh day postinfection. Each agent dissolved in PEG 400 (0.1 ml/locus) was topically applied to the whole soles of guinea pigs once a day for 3 consecutive days, starting on the 10th day postinfection. Five days after the last treatment, the skin tissue from each planta pedis and the corresponding tarsus of all animals was cut into small blocks (about 2×2 mm). Ten skin blocks obtained from each part of the foot were implanted on a Sabouraud's glucose agar plate containing antibiotics, and were cultured at 27° C. for 14 days. The skin blocks yielding fungal growth were regarded as culture-positive, and the foot (planta pedis plus tarsus) with more than one culture-positive skin block was considered fungus-positive. In addition, the intensity of infection was assessed by the scores based on the number of culture-positive skin blocks. Namely, +10, +9, +8, +7, +6, +5, +4, +3, +2, +1 or 0 was given as the score according to the corresponding number of culture-positive skin blocks out of ten skin blocks studied. Statistical analyses for the rate of fungus-positive feet and the average intensity of infection were assessed by Fisher's exact probably test and Mann-Whitney's U-test, respectively.

[2] = system: Trichophyton mentagrophytes; test: In vitro activity against Trichophyton mentagrophytes, MIC by twofold macro-broth dilution (Test Example 1); format: cell-based; details: Trichophyton mentagrophytes, 7 days at 27° C.
Method: as §1

[3] = 1% in PEG 400, topical once a day for 3 days, p < 0.01 vs untreated and PEG 400, Compound (A) also p < 0.05 vs 1% Racemic Compound (A)
[4] = 1% in PEG 400, topical once a day for 3 days, p < 0.01 vs untreated and PEG 400 control

- MIC (Trichophyton rubrum; IFO5467, 168 h, strain IFO 5467, 7 days at 27° C.): 0.005 µg/mL (≈ 0.0156 µM)
- MIC (Trichophyton rubrum; IFO5807, 168 h, strain IFO 5807, 7 days at 27° C.): 0.01 µg/mL (≈ 0.0313 µM)
- MIC (Trichophyton rubrum; IFO5808, 168 h, strain IFO 5808, 7 days at 27° C.): 0.01 µg/mL (≈ 0.0313 µM)
- MIC (Trichophyton rubrum; IFO6203, 168 h, strain IFO 6203, 7 days at 27° C.): 0.005 µg/mL (≈ 0.0156 µM)
- MIC (Trichophyton rubrum; IFO6204, 168 h, strain IFO 6204, 7 days at 27° C.): 0.01 µg/mL (≈ 0.0313 µM)
- MIC (Trichophyton rubrum; IFO9185, 168 h, strain IFO 9185, 7 days at 27° C.): 0.0025 µg/mL (≈ 0.00782 µM)
- MIC (Trichophyton rubrum; TIMM1822, 168 h, strain TIMM 1822, 7 days at 27° C.): 0.005 µg/mL (≈ 0.0156 µM)
- MIC (Trichophyton rubrum; TIMM1823, 168 h, strain TIMM 1823, 7 days at 27° C.): 0.01 µg/mL (≈ 0.0313 µM)
- MIC (Trichophyton rubrum; TIMM1824, 168 h, strain TIMM 1824, 7 days at 27° C.): 0.005 µg/mL (≈ 0.0156 µM)
- MIC (Trichophyton rubrum; TIMM1830, 168 h, strain TIMM 1830, 7 days at 27° C.): 0.0013 µg/mL (≈ 0.00406 µM)
- MIC (Aspergillus fumigatus; TIMM0063, strain TIMM 0063, 48 hours at 35° C., read-out: MIC): 0.0013 µg/mL (≈ 0.00406 µM)
- MIC (Aspergillus fumigatus; TIMM0078, strain TIMM 0078, 48 hours at 35° C., read-out: MIC): 0.0013 µg/mL (≈ 0.00406 µM)
- MIC (Aspergillus fumigatus; TIMM1728, strain TIMM 1728, 48 hours at 35° C., read-out: MIC): 0.0013 µg/mL (≈ 0.00406 µM)
- MIC (Aspergillus fumigatus; TIMM1767, strain TIMM 1767, 48 hours at 35° C., read-out: MIC): 0.0025 µg/mL (≈ 0.00782 µM)
- MIC (Candida albicans; IFO0197, strain IFO 0197, 80% inhibition): 0.25 µg/mL (≈ 0.782 µM)
- MIC (Candida albicans; IFO0579, strain IFO 0579, 80% inhibition): 0.0625 µg/mL (≈ 0.195 µM)
- MIC (Candida albicans; IFO1269, strain IFO 1269, 80% inhibition): 0.125 µg/mL (≈ 0.391 µM)
- MIC (Candida albicans; IFO1270, strain IFO 1270, 80% inhibition): 1 µg/mL (≈ 3.13 µM)
- MIC (Candida albicans; IFO1385, strain IFO 1385, 80% inhibition): 0.25 µg/mL (≈ 0.782 µM)
- MIC (Candida albicans; IFO1386, strain IFO 1386, 80% inhibition): 0.25 µg/mL (≈ 0.782 µM)
- MIC (Candida albicans; TIMM3163, strain TIMM 3163, 80% inhibition): 16 µg/mL (≈ 50 µM)
- MIC (Candida albicans; TIMM3164, strain TIMM 3164, 80% inhibition): 0.5 µg/mL (≈ 1.56 µM)
- MIC (Candida albicans; TIMM3165, strain TIMM 3165, 80% inhibition): 4 µg/mL (≈ 12.5 µM)
- MIC (Candida albicans; TIMM3166, strain TIMM 3166, 80% inhibition): 2 µg/mL (≈ 6.25 µM)
- MIC ([2]; IFO5466, 168 h, strain IFO 5466): 0.04 µg/mL (≈ 0.125 µM)
- MIC ([2]; IFO5809, 168 h, strain IFO 5809): 0.01 µg/mL (≈ 0.0313 µM)
- MIC ([2]; IFO5810, 168 h, strain IFO 5810): 0.01 µg/mL (≈ 0.0313 µM)
- MIC ([2]; IFO5811, 168 h, strain IFO 5811): 0.04 µg/mL (≈ 0.125 µM)
- MIC ([2]; IFO5929, 168 h, strain IFO 5929): 0.02 µg/mL (≈ 0.0625 µM)
- MIC ([2]; TIMM1189, 168 h, strain TIMM 1189): 0.04 µg/mL (≈ 0.125 µM)
- MIC ([2]; TIMM1814, 168 h, strain TIMM 1814): 0.04 µg/mL (≈ 0.125 µM)
- MIC ([2]; TIMM1815, 168 h, strain TIMM 1815): 0.04 µg/mL (≈ 0.125 µM)
- MIC ([2]; TIMM1817, 168 h, strain TIMM 1817): 0.04 µg/mL (≈ 0.125 µM)
- MIC ([2]; TIMM2789, 168 h, strain TIMM 2789): 0.01 µg/mL (≈ 0.0313 µM)
Compound: N#C/C(=C1/SCC(c2ccccc2Cl)S1)n1ccnc1 (racemic) [Racemic Compound (A), (±)-(E)-[4-(2-chlorophenyl)-1,3-dithiolan-2-ylidene]-1-imidazolylacetonitrile]
- Fungus-positive rate (%) [1, 3]: 40%
- Fungus-positive rate: The number of positive feet/The total number of feet [1, 3]: 4/10 and four feet among the inoculated ten feet
- Average intensity of infection, planta pedis (score 0 to +10) [1, 4]: +0.6
- Average intensity of infection, tarsus (score 0 to +10) [1, 4]: +0.2
- curative effect (in words) ([1]; 1% treated group): significant curative effect

Compound: CCC(C)n1ncn(-c2ccc(N3CCN(c4ccc(OC[C@H]5CO[C@](Cn6cncn6)(c6ccc(Cl)cc6Cl)O5)cc4)CC3)cc2)c1=O (relative stereo) [ITZ, (±)1-sec-Butyl-4-[p[4[p[[2R*,4S*2-(2,4-dichlorophenyl)-2-(1H-1,2,4-trizol-1-ylmethyl)-1,3-dioxolan-4-yl]methoxy]phenyl1-piperazinyl]phenyl.DELTA^21,2,4-triazolin-5-one]
- MIC (Aspergillus fumigatus; TIMM0063, 48 h): 0.04 µg/mL (≈ 0.0567 µM)
- MIC (Aspergillus fumigatus; TIMM0078, 48 h): 0.04 µg/mL (≈ 0.0567 µM)
- MIC (Aspergillus fumigatus; TIMM1728, 48 h): 0.08 µg/mL (≈ 0.113 µM)
- MIC (Aspergillus fumigatus; TIMM1767, 48 h): 0.08 µg/mL (≈ 0.113 µM)
